In patent US20150274680A1, “THERAPEUTIC OR PROPHYLACTIC AGENT FOR TUMOR LYSIS SYNDROME” (University of Fukui, priority 2012, published 2015):

Assays:
Type in all cases: in vivo, human
[1] = system: high-risk tumor lysis syndrome patient; experiment: Therapeutic effect on serum uric acid levels and renal function in a high-risk tumor lysis syndrome patient (Example 1)
Protocol: In order to investigate the therapeutic effects of febuxostat on a high-risk tumor lysis syndrome patient, a high-risk patient with tumor lysis syndrome which had occurred without antitumor therapy, and already presented hyperuricemia, was given transfusions of fresh frozen plasma and packed red blood cells, and then in addition to increasing a urine volume by supplying fluid and to alkalizing urine, febuxostat (60 mg) was orally administered for 3 days, and the serum uric acid levels and renal function were compared with those before administration of febuxostat.
A person, Myelodysplastic syndrome (MDS), White blood cell count (WBC) 15400/μL

[2] = system: patients with hematological malignancies at low or intermediate risk for tumor lysis syndrome; experiment: Prophylactic effect on serum uric acid, renal function and urinary uric acid excretion in patients with hematological malignancies receiving chemotherapy (Example 2)
Protocol: In order to investigate the prophylactic effects of febuxostat on tumor lysis syndrome, 10 mg of febuxostat (the starting dose in gout and hyperuricemia) was orally administered once a day, daily, from just before or the day before chemotherapy was performed on patients with hematological malignancies at low or intermediate risk for tumor lysis syndrome, and the serum uric acid level and the renal function on the fifth day of administration were compared with those before the start of febuxostat administration. For cases in which urine collection was possible, the urinary excretion level of uric acid on the fifth day of administration was compared with that before the start of febuxostat administration. […] Seven male and female cases (6 males and 1 female), aged 36 to 79 (median 70), acute myeloid leukemia (AML 3 cases), diffuse large B-cell lymphoma (DLBCL 2 cases), chronic myelomonocytic leukemia (CMML 1 case), chronic myeloid leukemia (CML 1 case), white blood cell count (WBC) 3,200 to 347,000/μL [table]

[3] = system: malignant tumor patients with tumor lysis syndrome; experiment: Prophylactic effect on serum uric acid levels when chemotherapy is performed on malignant tumor patients with tumor lysis syndrome (Example 3); settings: oral once daily from before chemotherapy, adult and pediatric patients; written in present tense, no data
Protocol: In order to investigate prophylactic effects of febuxostat on tumor lysis syndrome, febuxostat is orally administered once a day, daily, from before chemotherapy is performed on a malignant tumor adult patient with tumor lysis syndrome, and an assessment is made by using serum uric acid levels as indicators. In addition, also for a malignant tumor pediatric patient with tumor lysis syndrome, similar investigation is conducted with febuxostat.

## Cc1nc(-c2ccc(OCC(C)C)c(C#N)c2)sc1C(=O)O [febuxostat, 2-[3-cyano-4-(2-methylpropoxyl)phenyl]-4-methylthiazole-5-carboxylic acid]
[1]; Day 4, after 3 days of febuxostat 60 mg/day, 0.87 mg/dL before administration
  Serum creatinine (Cre): 0.73 mg/dL
[1]; Day 4, after 3 days of febuxostat 60 mg/day, 53 mL/min before administration
  Estimated glomerular filtration rate (eGFR): 64 mL/min
[1]; Day 4, after 3 days of oral febuxostat 60 mg/day, person, MDS, 9.7 mg/dL on the day before administration
  Serum uric acid level (UA): 1.7 mg/dL
[1]; Day 4 vs day before administration, febuxostat 60 mg/day for 3 days
  Reduction of serum uric acid level: 82.4%
[2]; Case 2 (AML), fifth day of febuxostat 10 mg/day, 1.9 mg/dL before administration
  Serum uric acid level (UA), Case 2: 2.3 mg/dL
[2]; Case 2, fifth day of febuxostat 10 mg/day, 0.8 g/day before administration
  Urinary excretion level of uric acid (urinary UA), Case 2: 1.6 g/day
[2]; Case 2, fifth day of febuxostat 10 mg/day, 101 mL/min before administration
  Estimated glomerular filtration rate (eGFR), Case 2: 99 mL/min
[2]; all cases, febuxostat 10 mg/day with chemotherapy
  Acute renal failure: in all cases, acute renal failure was prevented
[2]; all cases, prophylactic febuxostat 10 mg with chemotherapy, normal level 7.5 mg/dL or less
  Serum uric acid levels relative to normal levels: maintain the serum uric acid levels within or lower them to within normal levels
[2]; cases where urine collection was possible, fifth day of febuxostat 10 mg/day, 1.2 g/day on average before administration
  Urinary excretion level of uric acid (urinary UA), average: 0.9 g/day
[2]; fifth day of febuxostat 10 mg once daily oral, average of 7 cases, 6.3 mg/dL on average before administration
  Serum uric acid level (UA), average: 4.6 mg/dL
[2]; fifth day of febuxostat 10 mg once daily, average, 69.7 mL/min on average before administration
  Estimated glomerular filtration rate (eGFR), average: 76.9 mL/min
[2]; severe case in which WBC was high, fifth day of febuxostat 10 mg/day, 2.4 g/day before administration
  Urinary excretion level of uric acid (urinary UA), severe case with high WBC: 0.7 g/day
[3]
  Prevention of tumor lysis syndrome (serum uric acid levels as indicators): effective for the prevention of tumor lysis syndrome
